Experimental data as given in patent US20160136138A1, “DRUG FOR TREATMENT OF NONALCOHOLIC FATTY LIVER DISEASE” (KOWA COMPANY, LTD., priority 2013, published 2016).

Columns and labels:
[1] = tested on: LDL receptor knockout mice NASH model; assay: Western diet-fed LDL receptor knockout mice NASH model; format: in vivo; details: 12 weeks, vs control
Description: Effects on Western diet-fed LDL receptor knockout mice (Non Patent Document 4), which are known to develop fatty liver and hepatic inflammation, characteristic symptoms of NASH were examined. […] Male LDL receptor knockout mice ([…], Jackson Laboratories) were used in the experiment. Beginning at around 8 weeks of age, the mice were freely fed with Teklad Custom Research Diet (TD.88137, Harlan Teklad) as a Western diet for 13 weeks to develop NASH. • 2) Grouping: After 1 week of the Western diet feeding, the mice were subjected to blood sampling and weighing. The mice were divided into a control group (0.5% methyl cellulose aqueous solution), a Compound A 0.5 mg/kg administration group, and a fenofibrate 100 mg/kg administration group in such a way that there was no difference in plasma lipid level and weight between the groups. […] The administration period was 12 weeks. After the administration was completed, the livers were removed from the mice under pentobarbital sodium (50 mg/kg) anesthesia. The livers were fixed with paraformaldehyde and then subjected to the preparation of hematoxylin-eosin stained samples and immunostained samples for CD68 detection. In a blind study setting, using the hematoxylin-eosin stained samples, ballooning of hepatocytes was scored based on the following criteria (Kleiner et al. Hepatology 41, 1313-21, 2005). No balloon cells: 0 Few balloon cells: 1 Many balloon cells or ballooning: 2 The CD68 positive area in liver was measured with an image analysis system (WinROOF) in a blind study. The statistical analysis was performed using Stat […] Information Technology Inc.) (Ver. 1.1). Dunnett's test (N=14-15) was used for comparison with the control group, in which a significant difference with p<0.05 is indicated by the symbol *, and a significant difference with p<0.001 is indicated by the symbol ***.

[2] = tested on: KK-A^y mice fed with an MCD diet; assay: NASH model using KK-A^y mice fed with methionine-choline-deficient diet; format: in vivo; details: Compound A 0.25 mg/kg mixed in MCD diet (0.00026%), 16 weeks; scale 0 to 3
Description: Effects on experimental animals, KK-A^y mice fed with a methionine-choline-deficient diet (MCD diet), which are known to develop fatty liver, a characteristic symptom of NASH (Nakano S. et al., Hepatol Res., 38(10), 1026-39, 2008) were examined.
As in Example 1, this experiment was conducted using (R)-2-[3-[[N-(benzoxazol-2-yl)-N-3-(4-methoxyphenoxy)propyl ]aminomethyl]phenoxy]butyric acid (Compound A), which is disclosed as Example 85 in Patent Document 1 listed above.
Male KK-A^y mice (KK-A^y/TaJc1, CLEA Japan, Inc.) were used in the experiment. Beginning at around 12 weeks of age, the mice were freely fed with an MCD diet for 16 weeks to develop NASH. • 2) Grouping:
The mice were divided into a normal diet group, a control group (fed with an MCD diet), a Compound A 0.25 mg/kg administration group, and a bezafibrate 60 mg/kg administration group in such a way that there was no difference in weight between the groups. • 3) Drug administration:
The doses were mixed in the feed. The control group was fed with an MCD diet containing no drug. […]
After the administration was completed, the livers were removed from the mice under pentobarbital sodium (50 mg/kg) anesthesia. […] Depending on the grade, the fatty liver was scored on a scale of 0 to 3 based on the following criteria. […]

| SMILES | CD68 positive area in liver, reduction rate ([1]; fenofibrate 100 mg/kg orally once a day) [%] | CD68 positive area in liver, reduction rate ([1]; Compound A 0.5 mg/kg orally once a day) [%] | ballooning of hepatocytes (score) ([1]; Compound A 0.5 mg/kg orally once a day, Dunnett's test) | steatosis score [2] |
| --- | --- | --- | --- | --- |
| CC(C)OC(=O)C(C)(C)Oc1ccc(C(=O)c2ccc(Cl)cc2)cc1 [fenofibrate, reference compound] | 73 |  |  |  |
| CC[C@@H](Oc1cccc(CN(CCCOc2ccc(OC)cc2)c2nc3ccccc3o2)c1)C(=O)O [Compound A, (R)-2-[3-[[N-(benzoxazol-2-yl)-N-3-(4-methoxyphenoxy)propyl]aminomethyl]phenoxy]butyric acid] |  | 81 | significant suppression of ballooning of hepatocytes | 0 |
